Laboratory results taken from ChEMBL document CHEMBL4311985, “Novel virosecurinine bivalent mimetics as potent reversal agents against P-glycoprotein-mediated multidrug resistance” (Eur J Med Chem, 2019).
One block for each molecule: values may come before it. The source made the active and inactive calls. No cut-off for these calls is given here.

Tests used:
[1] = target: T1, ATP-dependent translocase ABCB1 (Homo sapiens, UniProt P08183); experiment: Reversal of P-gp mediated multidrug resistance in human HepG2/Dox cells assessed as potentiation of doxorubicin-induced cell growth inhibition at 10 uM measured after 48 hrs by MTT assay (reference value: 24%); type: cell-based
[2] = target: T1, ATP-dependent translocase ABCB1; experiment: Reversal of P-gp mediated multidrug resistance in human MCF7/ADM cells assessed as potentiation of doxorubicin-induced cell growth inhibition at 10 uM measured after 48 hrs by MTT assay (reference value: 5%); type: cell-based
[3] = Cytotoxicity against human MCF7/ADM cells assessed as reduction in cell viability at 10 uM measured after 48 hrs by MTT assay; type: cell-based
[4] = Cytotoxicity against human HepG2/DOX cells assessed as reduction in cell viability at 10 uM measured after 48 hrs by MTT assay; type: cell-based
[5] = target: T1, ATP-dependent translocase ABCB1; experiment: Reversal of P-gp mediated multidrug resistance in human MCF7/ADM cells assessed as potentiation of doxorubicin-induced cell growth inhibition at 10 uM measured after 48 hrs by MTT assay; type: cell-based
[6] = target: T1, ATP-dependent translocase ABCB1; experiment: Reversal of P-gp mediated multidrug resistance in human HepG2/Dox cells assessed as potentiation of doxorubicin-induced cell growth inhibition at 10 uM measured after 48 hrs by MTT assay; type: cell-based
[7] = target: T1, ATP-dependent translocase ABCB1; experiment: Reversal of P-gp mediated drug efflux in human MCF7/ADM cells assessed as increase in intracellular Rhodamine123 accumulation at 10 uM preincubated for 4 hrs followed by Rh123 addition measured after 1 hr incubation by fluorescence microscopic analysis; type: cell-based
[8] = target: T1, ATP-dependent translocase ABCB1; experiment: Inhibition of P-gp mediated doxorubicin efflux in human HepG2/Dox cells at 5 to 10 uM preincubated for 4 hrs followed by co-incubation with doxorubicin for 2 hrs followed by doxorubicin wash-out and measured after 120 mins incubation with drug containing culture medium by fluorescence based analysis; type: cell-based
[9] = Toxicity in liver of BALB/c nude mouse xenografted with human HepG2/Dox cells at 25 mg/kg, iv cotreated with doxorubicin every 3rd day for 12 days by hematoxylin and eosin staining based assay; type: organism-based; settings: in vivo, 288 h
Homo sapiens [10] = species on record: Homo sapiens; experiment: Effect on P-gp expression in human HepG2/Dox cells at 5 to 10 uM measured after 48 hrs by Western blot analysis; type: functional, cell-based
[11] = Cardiotoxicity in BALB/c nude mouse xenografted with human HepG2/Dox cells assessed as effect on doxorubicin-induced myocardial cell enlargement at 25 mg/kg, iv cotreated with doxorubicin every 3rd day for 12 days by hematoxylin and eosin staining based assay; type: toxicity, organism-based; settings: in vivo, 288 h
[12] = Toxicity in BALB/c nude mouse xenografted with human HepG2/Dox cells assessed as effect on doxorubicin-induced body weight decline at 25 mg/kg, iv coadministered with doxorubicin every 3rd day for 12 days; type: organism-based; settings: in vivo, 288 h
[13] = target: T1, ATP-dependent translocase ABCB1; experiment: Inhibition of P-gp mediated doxorubicin efflux in human MCF7/ADM cells at 5 to 10 uM preincubated for 4 hrs followed by co-incubation with doxorubicin for 2 hrs followed by doxorubicin wash-out and measured after 120 mins incubation with drug containing culture medium by fluorescence based analysis; type: cell-based
[14] = target: T1, ATP-dependent translocase ABCB1; experiment: Reversal of P-gp mediated multidrug resistance in human MCF7/ADM cells assessed as fold reduction in doxorubicin IC50 at 10 uM measured within 48 hrs by MTT assay relative to control; type: cell-based
[15] = target: T1, ATP-dependent translocase ABCB1; experiment: Reversal of P-gp mediated multidrug resistance in human MCF7/ADM cells assessed as potentiation of doxorubicin-induced cytotoxicity at 5 to 10 uM by MTT assay; type: cell-based; settings: TDE = time-dependent effect
[16] = Cytotoxicity against human HepG2/DOX cells assessed as cell viability at 10 uM measured after 48 hrs by MTT assay relative to control; type: cell-based; settings: read-out: Activity
[17] = Toxicity in kidney of BALB/c nude mouse xenografted with human HepG2/Dox cells at 25 mg/kg, ip administered daily by hematoxylin and eosin staining based assay; type: organism-based; settings: in vivo
[18] = target: T1, ATP-dependent translocase ABCB1; experiment: Reversal of P-gp mediated drug efflux in human HepG2/Dox cells assessed as increase in intracellular doxorubicin accumulation at 10 uM preincubated for 4 hrs followed by doxorubicin addition measured after 1 hr incubation by fluorescence microscopic analysis; type: cell-based
[19] = Toxicity in BALB/c nude mouse xenografted with human HepG2/Dox cells assessed as effect on body weight at 25 mg/kg, ip administered daily; type: organism-based; settings: in vivo
HepG2 = experiment: Cytotoxicity against human HepG2 cells assessed as cell viability at 5 to 50 uM measured after 48 hrs by MTT assay; type: cell-based; settings: hepg2, 48 h
[20] = Toxicity in spleen of BALB/c nude mouse xenografted with human HepG2/Dox cells assessed as blood extravasation at 25 mg/kg, iv cotreated with doxorubicin every 3rd day for 12 days by hematoxylin and eosin staining based assay; type: organism-based; settings: in vivo, 288 h
[21] = target: T1, ATP-dependent translocase ABCB1; experiment: Reversal of P-gp mediated drug efflux in human MCF7/ADM cells assessed as increase in intracellular doxorubicin accumulation at 10 uM preincubated for 4 hrs followed by doxorubicin addition measured after 1 hr incubation by fluorescence microscopic analysis; type: cell-based
[22] = target: T1, ATP-dependent translocase ABCB1; experiment: Reversal of P-gp mediated drug efflux in human HepG2/Dox cells assessed as increase in intracellular Rhodamine123 accumulation at 5 to 10 uM preincubated for 4 hrs followed by Rh123 addition measured after 1 hr incubation by flow cytometry analysis; type: cell-based
[23] = Cardiotoxicity in BALB/c nude mouse xenografted with human HepG2/Dox cells assessed as effect on myocardial cells at 25 mg/kg, ip administered daily by hematoxylin and eosin staining based assay; type: toxicity, organism-based; settings: in vivo
Homo sapiens [24] = species on record: Homo sapiens; experiment: Effect on P-gp expression in human MCF7/ADM cells at 5 to 10 uM measured after 48 hrs by Western blot analysis; type: functional, cell-based
Homo sapiens [25] = experiment: In vivo reversal of P-gp mediated drug resistance in human HepG2/Dox cells xenografted in BALB/c nude mouse assessed as reduction in tumour growth at 25 mg/kg, iv co-administered with doxorubicin every 3rd day for 12 days; type: functional, organism-based
[26] = Toxicity in lung of BALB/c nude mouse xenografted with human HepG2/Dox cells at 25 mg/kg, iv cotreated with doxorubicin every 3rd day for 12 days by hematoxylin and eosin staining based assay; type: organism-based; settings: in vivo, 288 h
[27] = Toxicity in spleen of BALB/c nude mouse xenografted with human HepG2/Dox cells assessed as inflammation at 25 mg/kg, iv cotreated with doxorubicin every 3rd day for 12 days by hematoxylin and eosin staining based assay; type: organism-based; settings: in vivo, 288 h
MCF7 = experiment: Cytotoxicity against human MCF7 cells assessed as cell viability at 5 to 50 uM measured after 48 hrs by MTT assay; type: cell-based; settings: mcf7, 48 h
[28] = target: T1, ATP-dependent translocase ABCB1; experiment: Reversal of P-gp mediated multidrug resistance in human MCF7/ADM cells assessed as fold reduction in doxorubicin IC50 at 5 uM measured within 48 hrs by MTT assay relative to control; type: cell-based
[29] = target: T1, ATP-dependent translocase ABCB1; experiment: Reversal of P-gp mediated multidrug resistance in human HepG2/DOX cells assessed as potentiation of doxorubicin-induced cytotoxicity at 5 to 10 uM by MTT assay; type: cell-based; settings: TDE = time-dependent effect
[30] = Cytotoxicity against human MCF7/ADM cells assessed as cell viability at 10 uM measured after 48 hrs by MTT assay relative to control; type: cell-based; settings: read-out: Activity
[31] = Toxicity in lung of BALB/c nude mouse xenografted with human HepG2/Dox cells at 25 mg/kg, ip administered daily by hematoxylin and eosin staining based assay; type: organism-based; settings: in vivo
[32] = target: T1, ATP-dependent translocase ABCB1; experiment: Reversal of P-gp mediated multidrug resistance in human HepG2/DOX cells assessed as fold reduction in doxorubicin IC50 at 10 uM measured within 48 hrs by MTT assay relative to control; type: cell-based
[33] = target: T1, ATP-dependent translocase ABCB1; experiment: Stimulation of P-gp ATPase activity (unknown origin) at 5 to 10 uM incubated for 40 mins by P-gp-Glo luminescence assay
[34] = Toxicity in kidney of BALB/c nude mouse xenografted with human HepG2/Dox cells at 25 mg/kg, iv cotreated with doxorubicin every 3rd for 12 days by hematoxylin and eosin staining based assay; type: organism-based; settings: in vivo, 288 h
[35] = target: T1, ATP-dependent translocase ABCB1; experiment: Reversal of P-gp mediated drug efflux in human HepG2/Dox cells assessed as increase in intracellular doxorubicin accumulation at 5 to 10 uM preincubated for 4 hrs followed by doxorubicin addition measured after 1 hr incubation by flow cytometry analysis; type: cell-based
[36] = Cytotoxicity against human AC16 cells assessed as cell survival at 50 uM measured after 72 hrs by MTT assay relative to control; type: cell-based; settings: read-out: Activity
[37] = target: T1, ATP-dependent translocase ABCB1; experiment: Reversal of P-gp mediated drug efflux in human HepG2/Dox cells assessed as increase in intracellular Rhodamine123 accumulation at 10 uM preincubated for 4 hrs followed by Rh123 addition measured after 1 hr incubation by fluorescence microscopic analysis; type: cell-based
Homo sapiens [38] = experiment: In vivo reversal of P-gp mediated drug resistance in human HepG2/Dox cells xenografted in BALB/c nude mouse assessed as tumour growth at 25 mg/kg, ip administered daily; type: functional, organism-based
[39] = target: T1, ATP-dependent translocase ABCB1; experiment: Reversal of P-gp mediated multidrug resistance in human HepG2/DOX cells assessed as potentiation of taxol-induced cytotoxicity at 5 to 10 uM by MTT assay; type: cell-based; settings: TDE = time-dependent effect
[40] = Toxicity in liver of BALB/c nude mouse xenografted with human HepG2/Dox cells at 25 mg/kg, ip administered daily by hematoxylin and eosin staining based assay; type: organism-based; settings: in vivo

T1 sequence (P08183 whole entry): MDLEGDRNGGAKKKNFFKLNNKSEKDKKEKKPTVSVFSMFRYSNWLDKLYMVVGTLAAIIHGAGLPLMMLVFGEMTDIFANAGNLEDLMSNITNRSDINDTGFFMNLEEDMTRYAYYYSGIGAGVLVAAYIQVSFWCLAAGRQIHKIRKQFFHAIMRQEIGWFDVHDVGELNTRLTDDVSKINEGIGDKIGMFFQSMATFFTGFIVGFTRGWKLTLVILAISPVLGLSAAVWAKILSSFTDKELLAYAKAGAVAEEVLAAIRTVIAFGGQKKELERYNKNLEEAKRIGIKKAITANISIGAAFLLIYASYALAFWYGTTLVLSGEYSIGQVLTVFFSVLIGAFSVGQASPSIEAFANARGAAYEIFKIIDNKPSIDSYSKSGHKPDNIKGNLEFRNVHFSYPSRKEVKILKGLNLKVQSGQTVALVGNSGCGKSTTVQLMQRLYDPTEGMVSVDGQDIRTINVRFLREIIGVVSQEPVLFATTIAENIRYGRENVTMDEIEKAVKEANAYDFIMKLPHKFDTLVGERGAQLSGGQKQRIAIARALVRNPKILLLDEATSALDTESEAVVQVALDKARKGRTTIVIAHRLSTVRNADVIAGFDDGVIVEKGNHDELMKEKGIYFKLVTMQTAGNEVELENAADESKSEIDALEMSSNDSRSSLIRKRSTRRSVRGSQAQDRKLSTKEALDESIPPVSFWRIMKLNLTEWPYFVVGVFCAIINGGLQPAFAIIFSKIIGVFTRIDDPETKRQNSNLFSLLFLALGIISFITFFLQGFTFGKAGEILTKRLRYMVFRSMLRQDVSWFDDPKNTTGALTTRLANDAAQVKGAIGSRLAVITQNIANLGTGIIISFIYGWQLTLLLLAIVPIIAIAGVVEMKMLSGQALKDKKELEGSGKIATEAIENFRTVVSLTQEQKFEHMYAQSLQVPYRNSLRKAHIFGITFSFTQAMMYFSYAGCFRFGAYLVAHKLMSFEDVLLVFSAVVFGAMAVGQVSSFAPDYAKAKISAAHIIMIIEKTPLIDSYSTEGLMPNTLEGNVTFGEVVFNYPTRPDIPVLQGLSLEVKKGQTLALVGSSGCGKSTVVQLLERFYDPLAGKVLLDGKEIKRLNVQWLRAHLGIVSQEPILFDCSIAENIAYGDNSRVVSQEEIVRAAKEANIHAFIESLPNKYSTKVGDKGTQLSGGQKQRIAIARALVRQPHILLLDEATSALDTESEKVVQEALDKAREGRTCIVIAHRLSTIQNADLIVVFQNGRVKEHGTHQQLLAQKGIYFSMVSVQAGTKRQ

SMILES: O=C1C=C2C=C[C@@H]3C[C@@]2(O1)[C@H]1CCCCN31 [SECURININE]
inhibition at 10 µM [1]: 36%
inhibition at 10 µM [2]: 31%

SMILES: CCCN(C(=O)CCCCCC(=O)N(CCC)[C@H]1CC2=CC(=O)O[C@]23C[C@H]1N1CCCC[C@H]13)[C@H]1CC2=CC(=O)O[C@]23C[C@H]1N1CCCC[C@H]13
Activity [3]: Toxic
Activity [4]: Toxic

SMILES: CCCN(C(=O)CCCCCCCCC(=O)N(CCC)[C@H]1CC2=CC(=O)O[C@]23C[C@H]1N1CCCC[C@H]13)[C@H]1CC2=CC(=O)O[C@]23C[C@H]1N1CCCC[C@H]13
inhibition (INH) [5]: Active
Activity [3]: Toxic
inhibition (INH) [6]: Active
Activity [4]: Toxic

inhibition (INH) [7]: Active
inhibition (INH) [8]: Active
inhibition at 10 µM [1]: 85%
inhibition (INH) [13]: Active
fold change (FC) [14]: 126.4
inhibition at 10 µM [2]: 78%
inhibition (INH) [18]: Active
inhibition (INH) [21]: Active
inhibition (INH) [22]: Active
fold change (FC) [28]: 10.4
fold change (FC) [32]: 231
Activity [33]: Active
inhibition (INH) [35]: Active
inhibition (INH) [37]: Active
SMILES: CCCN(C(=O)CCCCCCC(=O)N(CCC)[C@H]1CC2=CC(=O)O[C@]23C[C@H]1N1CCCC[C@H]13)[C@H]1CC2=CC(=O)O[C@]23C[C@H]1N1CCCC[C@H]13
Activity [9]: Non-Toxic
Activity (Homo sapiens [10]): inactive
Activity [11]: Non-Toxic
Activity [12]: Non-Toxic
inhibition (INH) [15]: Tde
viability at 48 h, 10 µM [16]: > 90%
Activity [17]: Non-Toxic
Activity [19]: Non-Toxic
Activity (HepG2): Non-Toxic
Activity [20]: Toxic
Activity [23]: Non-Toxic
Activity (Homo sapiens [24]): inactive
inhibition (Homo sapiens [25]): Active
Activity [26]: Non-Toxic
Activity [27]: Toxic
Activity (MCF7): Non-Toxic
inhibition (INH) [29]: Tde
viability at 48 h, 10 µM [30]: > 90%
Activity [31]: Non-Toxic
Activity [34]: Non-Toxic
viability at 72 h, 50 µM [36]: 100%
inhibition (Homo sapiens [38]): inactive
inhibition (INH) [39]: Tde
Activity [40]: Non-Toxic

inhibition at 10 µM [1]: 81%
SMILES: CCCN(C(=O)CCCCCCC(=O)N(CCC)[C@H]1CC2=CC(=O)O[C@@]23C[C@@H]1N1CCCC[C@@H]13)[C@H]1CC2=CC(=O)O[C@@]23C[C@@H]1N1CCCC[C@@H]13
inhibition (INH) [5]: Not Active

SMILES: CCCN(C(=O)CCCCCCCC(=O)N(CCC)[C@H]1CC2=CC(=O)O[C@]23C[C@H]1N1CCCC[C@H]13)[C@H]1CC2=CC(=O)O[C@]23C[C@H]1N1CCCC[C@H]13
inhibition (INH) [5]: Active
Activity [3]: Toxic
inhibition (INH) [6]: Active
Activity [4]: Toxic

SMILES: COc1ccc(CCN(C)CCCC(C#N)(c2ccc(OC)c(OC)c2)C(C)C)cc1OC (centres undefined) [VERAPAMIL]
inhibition at 10 µM [1]: 84%
inhibition at 10 µM [2]: 70%

SMILES: CCCN(C(=O)CCCCC(=O)N(CCC)[C@H]1CC2=CC(=O)O[C@]23C[C@H]1N1CCCC[C@H]13)[C@H]1CC2=CC(=O)O[C@]23C[C@H]1N1CCCC[C@H]13
inhibition (INH) [5]: Active
Activity [3]: Toxic
inhibition (INH) [6]: Active
Activity [4]: Toxic

inhibition at 10 µM [1]: 78%
inhibition at 10 µM [2]: 84%
SMILES: CCCN(C(=O)CCCCCC(=O)N(CCC)[C@H]1CC2=CC(=O)O[C@@]23C[C@@H]1N1CCCC[C@@H]13)[C@H]1CC2=CC(=O)O[C@@]23C[C@@H]1N1CCCC[C@@H]13
Activity [3]: Toxic
Activity [4]: Toxic

inhibition at 10 µM [1]: 79%
SMILES: CCCN(C(=O)CCCCC(=O)N(CCC)[C@H]1CC2=CC(=O)O[C@@]23C[C@@H]1N1CCCC[C@@H]13)[C@H]1CC2=CC(=O)O[C@@]23C[C@@H]1N1CCCC[C@@H]13
inhibition (INH) [5]: Not Active
